Measured values: patent US20220002399A1, “METHODS FOR DECREASING INFLUENZA-INDUCED LETHALITY USING GASTRIN-RELEASING PEPTIDE (GRP) INHIBITORS OR GASTRIN-RELEASING PEPTIDE RECEPTOR (GRPR) ANTAGONISTS” (University of Maryland, Baltimore, priority 2018, published 2022)
Ends that are not written are not given here.

Key:
[1] = test system: LPS signaling (TLR4) in WT C57BL/6J peritoneal macrophages; experiment: LPS signaling in peritoneal macrophages pre-treated with GRP inhibitor or GRPR antagonist; format: cell-based, mouse; details: 0.5 μM pre-treatment 1 h, then LPS (10 ng/ml) 2 h
[2] = test system: radiation-induced pneumonitis/fibrosis; details: therapeutic administration; cited from earlier work
[3] = test system: influenza-induced cytokine induction; experiment: Lung cytokine gene expression by qRT-PCR in PR8-infected mice; format: in vivo, WT C57BL/6J mice; parameters: lung mRNA expression of IFN-β: dose or concentration left out as unconfirmed
[4] = test system: GRP-induced angiogenesis; details: 0.5 μM; in vitro and in vivo; cited from earlier work
[5] = test system: pulmonary neuroendocrine cells (PNECs); experiment: IHC staining for pulmonary neuroendocrine cells (PGP 9.5, GRP) in influenza-infected mice; format: in vivo, WT C57BL/6J mice
From the text: FIG. 4. IHC staining for pulmonary neuroendocrine cells (PNECs), PGP 9.5, and GRP in influenza-infected mice. Lung sections from FIG. 3 were stained in a mock-infected, c PR8+vehicle, and e PR8+NSC77427 for neural/neuroendocrine-specific PGP 9.5, or in b mock-infected, d PR8+vehicle, and f PR8+NSC77427 for GRP, a neuroendocrine granule marker. Scale bars shown are 50 μm for a-d, and 10 μm for e and f. Arrows are positioned in each panel within a treatment group to indicate groups of positive cells, except in b, where the arrow indicates GRP− cells adjacent to the PGP 9.5+ cells shown in a. g Graphic image analysis of PGP 9.5+ and GRP+ cells after IHC staining. Slides were blinded by an observer with no knowledge of experimental groups. PCP9.5+ and GRP+ cells were counted throughout each complete lung lobe crosssection for each animal, with validation by x40 micrographs of each slide. Total tissue area was determined by using ImageI thresholding analysis (methyl green counterstain) because PNECs are mainly observed in alveolar ducts and small bronchioles. *p=0.009; **p=0.001
Immunohistochemical (IHC) staining for the mature GRP peptide (a PNEC granule marker) and PGP 9.5 (the neural/NE cytoplasmic isoform of ubiquitin-C-terminal hydrolase-1) was carried out as described previously. In brief, formalin-fixed, paraffin-embedded lung sections were treated for 10 min with Triton X-100 (0.3% in phosphate-buffered saline (PBS)), then normal serum blocking. Diluted primary antibodies were added to sections overnight at 4° C., followed by washing in PBS and incubation for 2 h at 4° C. with 1:200 dilution of biotinylated secondary antibodies (Vector, Burlingame, Calif., USA). After blocking in 3% H2O2 in methanol, Vector ABC Elite was applied to slides for 30 min. Slides were developed by using diaminobenzidine and H2O2, and then counterstained in 2% aqueous methyl green. All slides were blinded for semi-quantitative analysis. Results are expressed as mean numbers of cells positive for PGP 9.5 or GRP per mm^2 lung tissue section. […]

[6] = test system: LPS signaling (TLR4) in WT C57BL/6J peritoneal macrophages; format: cell-based, mouse; details: 2 h
[7] = 20 μM/mouse i.v. daily day 2 to 6

Nc1nc(Cl)cc(NCCO)n1 [NSC77427, 2-[(2-amino-6-chloropyrimidin-4-yl)amino]ethanol]
LPS-induced MyD88-dependent (TNF-α) or TRIF-dependent (IFN-β, RANTES) gene expression [1]: did not block
lung injury [2]: mitigated
lung mRNA expression of IL-1β [3, 7]: blunted
lung mRNA expression of RANTES [3, 7]: blunted
lung mRNA expression of TNF-α [3, 7]: blunted
lung mRNA expression of IFN-β ([3]; i.v. daily day 2 to 6): blunted
GRP-induced angiogenesis [4]: blocked GRP-induced angiogenesis
fewer PGP+ PNECs vs. PR8-infected untreated ([5]; NSC77427 days 2 to 6, IHC image analysis, p=0.009): ~50%
GRP immunostaining in the extracellular matrix ([5]; PR8-infected, NSC77427 days 2 to 6): visibly less
decrease in GRP+ PNECs ([5]; PR8-infected, NSC77427 days 2 to 6, IHC image analysis, p=0.001): ~70%

GRP: exogenous gastrin-releasing peptide added to macrophages with LPS (VPLPAGGGTVLTKMYPRGNHWAVGHLM; ends and bridges not checked; UniProt P07492 24-50, looked up)
MyD88-dependent and TRIF-dependent cytokine gene expression with suboptimal LPS ([6]; GRP 1-100 nM plus LPS 0.1 and 1 ng/ml): synergistic induction
synergistic effect with LPS at higher doses of LPS ([6]; GRP 1-100 nM plus LPS up to 10 ng/ml): largely lost
cytokine gene expression, GRP alone ([6]; GRP 1-100 nM, no LPS): did not induce cytokine gene expression
